This assay deals with human Nav1.8 (Homo sapiens, UniProt Q9Y5Y9). As to the kind of experiment: SyncroPatch384PE assay (automated patch clamp). It counts as cell-based. As to conditions: human Nav1.8/b3 CHO cells. As for the experimental part: Compounds were tested on recombinant human Nav1.8/b3 stably transfected CHO cells using the SyncroPatch384PE system (Nanion Technologies), an automated patch clamp device. Cells were cultured at 37° C./5% CO2 in Ham's F-12 supplemented with 10% fetal bovine serum, 100 U/mL penicillin G sodium, […] streptomycin sulfate and selection antibiotics (0.01 mg/mL Blasticidin, 0.4 mg/mL Zeocin and 0.25 mg/mL Hygromycin). On the day of the recordings, cells in culture dishes were washed twice with Hank's Balanced Salt Solution (HBSS) and treated with Accutase for approximately 20 minutes. Immediately before use in the SynchroPatch384PE using an 8-hole NPC-384 chip, the cells were washed in HBSS to remove the Accutase and re-suspended in extracellular solution. All experiments were performed at ambient temperature. Intracellular solution contained (mM): CsCl, 50; CsF, 90; MgCl2, 5; EGTA, 1; HEPES, 10; pH adjusted to 7.2 with CsOH. Extracellular solution contained (mM): NaCl, 137; KCl, 4.0; CaCl2), 3.8; MgCl2, 1; HEPES, 10; Glucose, 10; pH adjusted to 7.4 with NaOH. 100 nM tetrodotoxin (TTX) was added to the extracellular solution to block endogenous TTX-sensitive sodium currents.
Compounds were tested in quadruplicate in 0.3% DMSO and 0.03% pluronic Acid. Compounds were diluted 1:3.33 in extracellular solution to create an 8-point concentration response curve. Each plate contained a historical positive control and up to ten compounds. 300 μM tetracaine and 0.3% DMSO+0.03% pluronic acid were used as high and low controls respectively.
Whole cell patch clamp recordings were conducted according to Nanion's standard procedure for SyncroPatch384PE®. Cells were held at a holding potential of −120 mV. A depolarization step to 10 mV for 30 ms was applied (P1 measurement), followed by a hyperpolarization step to −100 mV for 100 ms. An inactivation step at −35 mV for 10 sec was applied before stepping to −100 mV for 20 ms, followed by a step to 10 mV for 30 ms (P2 measurement) and then back to −100 mV for 30 ms. Sweep interval was 15 sec. Following establishment of the whole-cell configuration in extracellular solution, cells were washed in extracellular solution containing 0.3% DMSO and 0.03% pluronic acid to stabilize the baseline current. Compounds were then applied by the SynchroPatch384 PE system into each well and the current was recorded for five minutes in extracellular solution, followed by application of tetracaine to achieve full block at the end of experiment. The potency of the compounds was assessed on two read-outs, resting state block (P1 measurement) or inactivated state block (P2 measurement) to obtain IC50 values. Values were normalized to high (tetracaine) and low (DMSO+pluronic acid) controls.
Examples 1 to 219 and Examples 225 to 236 are assayed using SyncroPatch384PE assay described above.

[1] abbreviates: inactivated state block (P2 measurement), read-out: P2 IC50.
The mark [2] stands for this setting: resting state block (P1 measurement), read-out: P1 IC50.

Structures are written as SMILES. Read-outs that look alike come from different tables or passages of the source.

human Nav1.8, sequence (Q9Y5Y9 whole entry): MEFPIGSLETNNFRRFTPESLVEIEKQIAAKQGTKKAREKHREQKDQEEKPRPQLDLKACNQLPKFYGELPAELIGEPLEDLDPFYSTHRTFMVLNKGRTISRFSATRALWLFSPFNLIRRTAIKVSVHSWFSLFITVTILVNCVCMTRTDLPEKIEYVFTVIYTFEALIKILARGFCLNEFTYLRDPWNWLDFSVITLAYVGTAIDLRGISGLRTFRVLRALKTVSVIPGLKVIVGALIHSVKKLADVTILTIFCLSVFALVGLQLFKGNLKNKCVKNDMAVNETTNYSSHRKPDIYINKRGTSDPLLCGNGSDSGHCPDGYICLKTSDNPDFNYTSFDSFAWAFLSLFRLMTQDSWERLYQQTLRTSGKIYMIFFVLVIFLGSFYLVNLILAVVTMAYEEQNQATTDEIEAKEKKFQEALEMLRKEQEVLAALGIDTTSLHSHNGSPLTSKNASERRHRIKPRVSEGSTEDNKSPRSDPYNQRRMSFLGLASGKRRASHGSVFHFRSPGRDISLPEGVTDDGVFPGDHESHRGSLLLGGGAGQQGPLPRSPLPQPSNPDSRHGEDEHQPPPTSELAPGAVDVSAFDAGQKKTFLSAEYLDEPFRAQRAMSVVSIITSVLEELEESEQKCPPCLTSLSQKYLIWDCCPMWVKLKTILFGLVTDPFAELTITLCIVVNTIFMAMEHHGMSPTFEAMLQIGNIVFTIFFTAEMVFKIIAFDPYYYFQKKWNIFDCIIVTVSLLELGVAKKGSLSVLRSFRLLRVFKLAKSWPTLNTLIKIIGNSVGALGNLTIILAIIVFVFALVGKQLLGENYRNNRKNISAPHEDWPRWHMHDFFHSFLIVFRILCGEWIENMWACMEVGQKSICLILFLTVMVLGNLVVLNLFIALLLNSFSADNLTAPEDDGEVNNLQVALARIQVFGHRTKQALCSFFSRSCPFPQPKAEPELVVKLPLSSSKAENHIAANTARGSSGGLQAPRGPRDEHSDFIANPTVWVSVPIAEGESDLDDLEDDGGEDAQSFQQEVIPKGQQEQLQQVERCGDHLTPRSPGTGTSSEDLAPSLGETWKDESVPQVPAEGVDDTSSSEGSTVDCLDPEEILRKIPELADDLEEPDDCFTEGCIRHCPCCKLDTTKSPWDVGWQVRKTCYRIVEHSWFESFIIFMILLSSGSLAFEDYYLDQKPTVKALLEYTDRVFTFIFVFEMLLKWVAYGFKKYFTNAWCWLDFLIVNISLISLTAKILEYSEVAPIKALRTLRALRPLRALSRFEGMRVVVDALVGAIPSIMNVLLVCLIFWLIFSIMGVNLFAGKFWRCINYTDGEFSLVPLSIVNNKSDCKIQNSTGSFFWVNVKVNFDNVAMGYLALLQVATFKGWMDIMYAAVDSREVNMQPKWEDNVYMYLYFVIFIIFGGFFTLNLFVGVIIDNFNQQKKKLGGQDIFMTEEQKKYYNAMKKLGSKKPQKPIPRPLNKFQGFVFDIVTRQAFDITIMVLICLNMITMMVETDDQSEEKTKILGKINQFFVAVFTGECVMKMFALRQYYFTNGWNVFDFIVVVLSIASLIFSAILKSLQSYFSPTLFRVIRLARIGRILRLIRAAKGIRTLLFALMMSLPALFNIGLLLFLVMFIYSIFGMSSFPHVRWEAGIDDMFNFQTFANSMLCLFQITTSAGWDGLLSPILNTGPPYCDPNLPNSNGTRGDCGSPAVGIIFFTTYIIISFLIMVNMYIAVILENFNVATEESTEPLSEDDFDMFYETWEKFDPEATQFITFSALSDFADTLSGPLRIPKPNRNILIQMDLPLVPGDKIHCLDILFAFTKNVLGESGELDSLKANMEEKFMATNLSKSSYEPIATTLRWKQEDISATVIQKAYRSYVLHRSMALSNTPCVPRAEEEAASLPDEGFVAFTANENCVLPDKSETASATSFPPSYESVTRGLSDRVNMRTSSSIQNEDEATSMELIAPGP

Usually IC50 stands for the point on the concentration scale where inhibition reaches its midpoint. Turning to `Cc1c(-c2ccc(C#N)cc2)cnc(N2CCCC(F)(F)CC2)c1C(=O)Nc1cccc([S@@](C)(=O)=NC(=O)C(C)(C)N)c1` [Example 55, (R)-N-(3-(N-(2-amino-2-methylpropanoyl)-S-methylsulfonimidoyl)phenyl)-5-(4-cyanophenyl)-2-(4,4-difluoroazepan-1-yl)-4-methylnicotinamide], the IC50 runs as follows: under setting [1], ≤ 5 nM; under setting [2], ≤ 5 nM.
With `Cc1c(Cl)c(C(F)(F)F)nc(N2CCCC(F)(F)CC2)c1C(=O)Nc1cccc(S(C)(=N)=O)c1` (centres unmarked) [Example 41, 5-Chloro-2-(4,4-difluoroazepan-1-yl)-4-methyl-N-(3-(S-methylsulfonimidoyl)phenyl)-6-(trifluoromethyl)nicotinamide], the IC50 under setting [1] was ≤ 5 nM and the IC50 under setting [2] was ≤ 5 nM.
As to `O=C(Nc1ccnnc1)c1nnc(C(F)(F)F)cc1N1CCCC(F)(F)CC1` [Example 32, 4-(4,4-Difluoroazepan-1-yl)-N-(pyridazin-4-yl)-6-(trifluoromethyl)pyridazine-3-carboxamide], the IC50 under setting [1] is > 200 nM and the IC50 under setting [2] is > 200 nM.
With `Cc1c(-c2cnn(C)c2)cnc(N2CCCC(F)(F)CC2)c1C(=O)Nc1cccc([S@@](C)(=O)=NC(=O)C(N)C(F)(F)F)c1` (stereo partly drawn) [Example 174, N-(3-((R)-N-(2-amino-3,3,3-trifluoropropanoyl)-S-methylsulfonimidoyl)phenyl)-2-(4,4-difluoroazepan-1-yl)-4-methyl-5-(1-methyl-1H-pyrazol-4-yl)nicotinamide], the IC50 reads like this: under setting [1], 5 to 50 nM; under setting [2], 5 to 50 nM.
With `Cc1c(C#CC2CC2)cnc(N2CCCC(F)(F)CC2)c1C(=O)Nc1cccc([S@](C)(=N)=O)c1` [Example 63, (R)-5-(cyclopropylethynyl)-2-(4,4-difluoroazepan-1-yl)-4-methyl-N-(3-(S-methylsulfonimidoyl)phenyl)nicotinamide], the 50% inhibitory concentration (IC50) by setting is: under setting [1], ≤ 5 nM; under setting [2], ≤ 5 nM.
As for `Cc1c(C(=O)Nc2cccc([S@@](C)(=O)=NC(=O)[C@@H]3CCCN3)c2)c(N2CCCC(F)(F)CC2)nc(C(F)(F)F)c1-c1cnn(C)c1` [Example 190, N-(3-((R)-N-(L-prolyl)-S-methylsulfonimidoyl)phenyl)-2-(4,4-difluoroazepan-1-yl)-4-methyl-5-(1-methyl-1H-pyrazol-4-yl)-6-(trifluoromethyl)nicotinamide], the IC50 under setting [1] was ≤ 5 nM and the half-inhibitory concentration (IC50) under setting [2] is ≤ 5 nM.
Turning to `Cc1c(C(F)(F)F)nnc(N2CCC3(CC2)CC3)c1C(=O)Nc1cccc(S(C)(=N)=O)c1` (centres unmarked) [Example 94, 5-methyl-N-(3-(S-methylsulfonimidoyl)phenyl)-3-(6-azaspiro[2.5]octan-6-yl)-6-(trifluoromethyl)pyridazine-4-carboxamide], the IC50 under setting [1] is > 200 nM and the IC50 under setting [2] was > 200 nM.
`Cc1c(-c2ccc3c(c2)OCCO3)cnc(N2CCCC(F)(F)CC2)c1C(=O)Nc1cccc([S@](C)(=N)=O)c1` [Example 47, (R)-2-(4,4-difluoroazepan-1-yl)-5-(2,3-dihydrobenzo[b][1,4]dioxin-6-yl)-4-methyl-N-(3-(S-methylsulfonimidoyl)phenyl)nicotinamide]: the IC50 was in the range of 5 to 50 nM under setting [1] and 5 to 50 nM under setting [2].
For `Cc1c(C(F)(F)F)nnc(N2CCCC(F)(F)CC2)c1C(=O)Nc1cccc([S@@](C)(=N)=O)c1` [Example 29, (S)-3-(4,4-Difluoroazepan-1-yl)-5-methyl-N-(3-(S-methylsulfonimidoyl)phenyl)-6-(trifluoromethyl)pyridazine-4-carboxamide], the IC50 under setting [1] is 5 to 50 nM and the IC50 under setting [2] lay in the range of 5 to 50 nM.
Regarding `Cc1c(Cl)cnc(N2CCCC(F)(F)CC2)c1C(=O)Nc1cccc(S(C)(=N)=O)c1` (centres unmarked) [Example 95, 5-chloro-2-(4,4-difluoroazepan-1-yl)-4-methyl-N-(3-(S-methylsulfonimidoyl)phenyl)nicotinamide], the IC50 is, setting by setting: under setting [1], ≤ 5 nM; under setting [2], ≤ 5 nM.
For the compound `CNCC(=O)N=[S@](C)(=O)c1cccc(NC(=O)c2c(N3CCCC(F)(F)CC3)ncc(-c3ccc(Cl)cc3)c2C)c1` [Example 68, (R)-5-(4-chlorophenyl)-2-(4,4-difluoroazepan-1-yl)-4-methyl-N-(3-(S-methyl-N-(methylglycyl)sulfonimidoyl)phenyl)nicotinamide], the IC50 under setting [1] was ≤ 5 nM and the IC50 under setting [2] was ≤ 5 nM.
Regarding `Cc1c(-c2ccc(F)cc2)cnc(N2CCCC(F)(F)CC2)c1C(=O)Nc1cccc(S(C)(=N)=O)c1` (centres unmarked) [Example 88, 2-(4,4-difluoroazepan-1-yl)-5-(4-fluorophenyl)-4-methyl-N-(3-(S-methylsulfonimidoyl)phenyl)nicotinamide], the IC50 by setting is: under setting [1], ≤ 5 nM; under setting [2], ≤ 5 nM.
Turning to `Cc1c(C(F)(F)F)nnc(N2CC3(COC3)C2)c1C(=O)Nc1cccc(S(C)(=N)=O)c1` (centres unmarked) [Example 100, 5-methyl-N-(3-(S-methylsulfonimidoyl)phenyl)-3-(2-oxa-6-azaspiro[3.3]heptan-6-yl)-6-(trifluoromethyl)pyridazine-4-carboxamide], the IC50 under setting [1] is > 200 nM and the IC50 under setting [2] was > 200 nM.
As for `Cc1nc(N2CCCC(F)(F)CC2)c(C(=O)Nc2cccc([S@@](C)(=N)=O)c2)c(C)c1C(F)(F)F` (single isomer, unassigned) [Example 185], the IC50 is, setting by setting: under setting [1], ≤ 5 nM; under setting [2], ≤ 5 nM.
For `CNCC(=O)N=[S@](C)(=O)c1cccc(NC(=O)c2c(N3CCCC(F)(F)CC3)nc(C(F)(F)F)c(C#N)c2C)c1` [Example 65, (R)-5-cyano-2-(4,4-difluoroazepan-1-yl)-4-methyl-N-(3-(S-methyl-N-(methylglycyl)sulfonimidoyl)phenyl)-6-(trifluoromethyl)nicotinamide], the IC50 under setting [1] was ≤ 5 nM and the IC50 under setting [2] was ≤ 5 nM.
On to `Cc1c(-c2ccc(F)cn2)cnc(N2CCCC(F)(F)CC2)c1C(=O)Nc1cccc(S(C)(=N)=O)c1` (centres unmarked) [Example 112, 6(4,4-difluoroazepan-1-yl)-5-fluoro-4methyl-N-(3-(S-methylsulfonimidoyl)phenyl)-[2,3bipyridine]-5carboxamide], for which the IC50 under setting [1] is 50 to 100 nM and the IC50 under setting [2] was in the range of 50 to 100 nM.
For the compound `Cc1c(-c2ccccc2)nnc(N2CCCC(F)(F)CC2)c1C(=O)Nc1cccc(S(C)(=N)=O)c1` (centres unmarked) [Example 20, 3-(4,4-difluoroazepan-1-yl)-5-methyl-N-(3-(S-methylsulfonimidoyl)phenyl)-6-phenylpyridazine-4-carboxamide], the IC50 was 50 to 100 nM under setting [1] and 50 to 100 nM under setting [2].
With `Cc1c(C(=O)Nc2cccc([S@@](C)(=O)=NC(=O)[C@@H](C)O)c2)c(N2CCCC(F)(F)CC2)nc(C(F)(F)F)c1-c1cnn(C)c1` [Example 236, 2-(4,4-difluoroazepan-1-yl)-N-(3-((R)-N-((R)-2-hydroxypropanoyl)-S-methylsulfonimidoyl)phenyl)-4-methyl-5-(1-methyl-1H-pyrazol-4-yl)-6-(trifluoromethyl)nicotinamide], the IC50 was ≤ 5 nM under setting [1] and ≤ 5 nM under setting [2].
For the compound `C[S@@+]([O-])c1cc(NC(=O)c2cc(Cl)c(C(F)(F)F)cc2N2CCCC(F)(F)CC2)ccc1F` [Example 206, (R)-5-chloro-2-(4,4-difluoroazepan-1-yl)-N-(4-fluoro-3-(methylsulfinyl)phenyl)-4-(trifluoromethyl)benzamide], the IC50 was ≤ 5 nM under setting [1] and ≤ 5 nM under setting [2].
For the compound `Cc1cc(C#N)nc(N2CCCC(F)(F)CC2)c1C(=O)Nc1cccc([S@](C)(=N)=O)c1` [Example 148, (R)-6-cyano-2-(4,4-difluoroazepan-1-yl)-4-methyl-N-(3-(S-methylsulfonimidoyl)phenyl)nicotinamide], the IC50 is 5 to 50 nM under setting [1] and 5 to 50 nM under setting [2].
`C=CCCc1ccc(C(=O)Nc2cccc(S(C)(=N)=O)c2)c(N2CCCC(F)(F)CC2)n1` (centres unmarked) [Example 13, 6-(3-Buten-1-yl)-2-(4,4-difluoroazepan-1-yl)-N-(3-(S-methylsulfonimidoyl)phenyl)nicotinamide]: the IC50 was ≤ 5 nM under setting [1] and ≤ 5 nM under setting [2].
Take `CS(=N)(=O)c1cccc(NC(=O)c2cc(C(F)(F)F)nnc2N2CCCCCC2)c1` (centres unmarked) [Example 1, 3-(Azepan-1-yl)-N-(3-(S-methylsulfonimidoyl)phenyl)-6-(trifluoromethyl)pyridazine-4-carboxamide]: the IC50 runs as follows: under setting [1], > 200 nM; under setting [2], > 200 nM.

The values are drawn from patent US20250154109A1, “SODIUM CHANNEL BLOCKING COMPOUNDS, DERIVATIVES THEREOF, AND METHODS OF THEIR USE” (LATIGO BIOTHERAPEUTICS, INC, priority 2022, published 2025).
